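How tested: cells in 96-well plates exposed to compound for 48 hours at five concentrations. The concentration for 50% growth inhibition is given as GI50. Definition used: TGI = concentration required for complete inhibition of growth.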
Tests used:
Assay in all cases: growth of human tumour cells (NCI), 48 h
UO-31 renal = test system: UO-31 renal
SK-OV-3 ovarian = test system: SK-OV-3 ovarian
KM12 colon = test system: KM12 colon
ACHN renal = test system: ACHN renal
IGROV1 ovarian = test system: IGROV1 ovarian
EKVX NSCLC = test system: EKVX NSCLC
NCI-H23 lung = test system: NCI-H23 lung
UACC-257 melanoma = test system: UACC-257 melanoma
HCT-116 colon = test system: HCT-116 colon
NCI-H522 lung = test system: NCI-H522 lung

Compound	TGI (UO-31 renal)	TGI (SK-OV-3 ovarian)	TGI (KM12 colon)	TGI (ACHN renal)	TGI (IGROV1 ovarian)	TGI (EKVX NSCLC)	TGI (NCI-H23 lung)	TGI (UACC-257 melanoma)	TGI (HCT-116 colon)	TGI (NCI-H522 lung)	GI50 (UO-31 renal)	GI50 (SK-OV-3 ovarian)	GI50 (KM12 colon)	GI50 (ACHN renal)	GI50 (EKVX NSCLC)	GI50 (NCI-H522 lung)	GI50 (NCI-H23 lung)	GI50 (HCT-116 colon)	GI50 (UACC-257 melanoma)
CCn1c(O)c(C(=O)NC(C)c2ccc([N+](=O)[O-])cc2)c(=O)n(CC)c1=S (stereo unspecified)	5.58 µM	7.38 µM	5.58 µM	11.2 µM	11.4 µM	12.7 µM	4.63 µM	16.6 µM	4.45 µM										
CC(C)NCCNC(=O)c1ccccc1Nc1c(Cl)cccc1Cl	21.8 µM	28 µM	36 µM	31.2 µM	30.7 µM	28.1 µM	32 µM	22.3 µM	23.4 µM										
O=C1NC(=S)N/C1=C\c1ccc(Sc2ccccc2C(=O)O)s1	> 100 µM		> 100 µM	> 100 µM	> 100 µM	> 100 µM	> 100 µM	> 100 µM	> 100 µM	44.4 µM									
Cc1cccc(=O)c([O-])c1.Cc1cccc(=O)c([O-])c1.Cc1cccc(=O)c([O-])c1.Cc1cccc(=O)c([O-])c1.[Th+4]	> 100 µM	> 100 µM	> 72.7 µM	> 100 µM	> 100 µM	> 89.1 µM	> 76.6 µM	> 63 µM	35 µM										
COc1ccc(-c2cc(-c3ccc(OC)c(OC)c3)nc(SCCCC(=O)NO)n2)cc1	1.44 µM	4.93 µM	> 100 µM	2.29 µM		> 100 µM	6.16 µM		13.7 µM	5.09 µM	0.301 µM	1.45 µM	2.23 µM	0.456 µM	1.73 µM	0.787 µM	1.96 µM	0.96 µM	
c1cc2c3c(c1)[C@@H]1O[C@@H]1c1cccc(c1-3)[C@@H]1O[C@H]21	30.3 µM	> 100 µM	44 µM	43 µM		34.4 µM	33.1 µM	48.4 µM	38.5 µM	30.1 µM									
Nc1cc2ncnc(Nc3cccc(Br)c3)c2cn1	> 100 µM	74.4 µM	63.9 µM	> 100 µM			> 100 µM	> 100 µM	> 100 µM										
CCOc1ccccc1N=NC1C(=O)N(C(=O)CC(=O)Nc2ccccc2OC)N=C1C (stereo unspecified)	68.2 µM	94.3 µM	> 100 µM	> 100 µM	> 100 µM	21.8 µM	> 100 µM		> 100 µM	> 100 µM									
COc1ccc(C2C3=CONC3CC3CCCCC32)cc1 (stereo unspecified)	> 100 µM			> 100 µM	> 100 µM		> 100 µM	> 100 µM	> 100 µM	> 100 µM									
O=[N+]([O-])c1cccc([N+](=O)[O-])c1Cl	2.86 µM		29.5 µM	31.4 µM	30.6 µM	46.4 µM	40.5 µM	23.6 µM	> 100 µM	29.5 µM									
C=C1C(=O)O[C@H]2[C@H]1CC/C(COC(=O)/C=C/C(=O)OC/C1=C/CC[C@@]3(C)O[C@H]3[C@H]3OC(=O)C(=C)[C@@H]3CC1)=C\CC[C@@]1(C)O[C@@H]21		> 100 µM	> 100 µM			> 100 µM		3.14 µM	0.756 µM	0.374 µM		> 100 µM	5.19 µM		2.22 µM	0.171 µM		0.253 µM	1.64 µM
CCOC(=O)c1c(SCCN2CCCCC2)n(-c2ccccc2)c(=S)n(-c2ccccc2)c1=O	33.9 µM	> 100 µM	35 µM	34.7 µM			34.8 µM	17.1 µM	4.89 µM	35.4 µM									
COc1c(-c2ccc(F)cc2)oc2cc(O)cc(O)c2c1=O	42.1 µM	> 100 µM	98.4 µM	93.4 µM	> 100 µM	45.5 µM	78.2 µM		> 100 µM	44.2 µM									
CC(=O)NCC1OC2COC(c3ccccc3)OC2C2N=C(c3ccccc3)OC12 (stereo unspecified)	> 100 µM	> 100 µM	> 100 µM	> 100 µM		> 100 µM	> 100 µM	> 100 µM	> 100 µM										
CC(C)CCCC(C)[C@H]1CC[C@H]2NCCCC[C@]12C (stereo partly specified)	20.7 µM	28.4 µM	6.96 µM	4.78 µM	19.8 µM	5.23 µM	23.8 µM	9.37 µM	20 µM										
COC(=O)c1c(C)cccc1C1CN=NC12Cc1cccc(C)c1C2=O (stereo unspecified)	67.7 µM		> 100 µM	> 100 µM	> 100 µM	> 100 µM	> 100 µM	57.7 µM	> 100 µM	75.7 µM									
O=C1/C(=C/c2cccs2)N=C(c2ccccc2)N1c1nc2ccccc2s1	> 100 µM		> 100 µM	> 100 µM	> 100 µM	> 100 µM	> 100 µM	> 100 µM	> 100 µM	17.3 µM									
Cc1ccc(Cl)c2c(=O)cc(-c3ccccc3)[nH]c12	> 100 µM	> 100 µM	> 100 µM	> 100 µM	> 100 µM		> 100 µM	> 100 µM	> 100 µM	> 100 µM									
OCC1c2ccccc2-n2nc(-c3ccccc3)c(O)c21 (stereo unspecified)	92.4 µM	> 100 µM	46.1 µM	30.6 µM	> 100 µM	> 100 µM	> 100 µM	> 100 µM		48.7 µM									
NC(=O)CC[C@H]1C(=O)N=C(N)N1C(=O)OCc1ccccc1	> 100 µM		> 100 µM	> 100 µM	> 100 µM	> 100 µM	> 100 µM	> 100 µM	> 100 µM	> 100 µM									
COC(C/C=C\C=C\CC/C=C/CC(C)/C=C/C(=C\C(=O)O)CC(=O)O)/C(C)=C\C=C(/C)C(=O)O (stereo unspecified)	> 100 µM	> 100 µM	> 100 µM		> 100 µM	> 100 µM	> 100 µM	> 100 µM	> 100 µM	> 100 µM									
O=C(NCCNCCO)N/N=C/c1ccccc1		> 100 µM	> 100 µM	> 100 µM	> 100 µM		> 100 µM	> 100 µM	> 100 µM	> 100 µM									
